Laboratory results reported in patent US10844404B2, “Engineered microorgansims and methods for improved crotyl alcohol production” (priority 2015, dated 2020).

Columns and labels:
[1] = system: E. coli Str. K-12 substr. MG1655 strains; experiment: Crotyl alcohol tolerance study (Bioscreen growth curves, turbidity OD420-580); type: cell-based; settings: 138 mM crotyl alcohol, M9+11.1 mM glucose, 37° C., FIG. 4B
Procedure: (§1) E. coli Str. K-12 substr. MG1655 strains 48 (wildtype) and 3-FEDB with multiple deletions (ΔyahkΔadhPΔyqhDΔadhE); and E. coli ATCC 8739 C strains (wildtype) and its variants 3-FISC (ΔadhE), 3-GAEB (ΔadhEΔyqhD), 3-GBOG (ΔadhEΔyqhDΔadhP), and 3-GDOB (ΔadhEΔyqhDΔadhPΔyahK) were struck for single colonies on LB agar from a glycerol freezer stock. Four single colonies per strain were picked and inoculated into 1 mL LB+55.7 mM glucose in deep well 96 well plates and grown at 37° C. overnight (16-20 hours). The optical density of the overnight culture was taken and cells were normalized to OD600=1 and spun down. Cells were resuspended in 1 mL of M9 minimal media+11.1 mM glucose. Cells were then spun down and washed again in 1 mL M9+11.1 mM glucose. Bioscreen honeycomb 2 plates (Cat. No. 9502550) were filled with 198 μL M9+11.1 mM glucose or M9+11.1 mM glucose+138 mM crotyl alcohol (Sigma-Aldrich). 2 μL washed cells were added to each well at N=4. Bioscreen honeycomb 2 plates were loaded into a bioscreen C MBR (Oy Growth Curves Ab Ltd) machine, an incubator system set to read turbidity at OD420-580 every 15 minutes at 37° C. For growth curve data, see FIG. 4A (E. coli Str. K-12 substr. MG1655 strains) and FIG. 4B (E. coli ATCC 8739 C variant strains).

[2] = system: E. coli ATCC 8739 C strains; experiment: as above; type: cell-based; settings: 138 mM crotyl alcohol, FIG. 5B
Procedure: as §1

## CC=CCO [crotyl alcohol, but-2-en-1-ol]
[1]; strain 3-FEDB (ΔyahKΔadhPΔyqhDΔadhE)
  growth in the presence of crotyl alcohol: while showing an initial lag grew on crotyl alcohol
[1]; wild-type or parental strain (48)
  growth in the presence of crotyl alcohol: growth is inhibited
[2]; M9+11.1 mM glucose, 37° C., wild-type or parental strain
  growth in the presence of crotyl alcohol: growth is inhibited
[2]; strain 3-FIDC (ΔadhE)
  growth in the presence of crotyl alcohol: inhibited
[2]; strain 3-GAEB (ΔadhEΔyqhD)
  growth in the presence of crotyl alcohol: inhibited
[2]; strain 3-GBOB (ΔadhEΔyqhDΔadhP)
  growth in the presence of crotyl alcohol: while showing an initial lag grew on crotyl alcohol
[2]; strain 3-GBOG (ΔyahKΔadhPΔyqhDΔadhE)
  growth in the presence of crotyl alcohol: while showing an initial lag grew on crotyl alcohol
